Measured values reported in the supplement of paper PMC10307832.

How the values were obtained:
Assay in all cases: relative viability (nuclei count vs DMSO), 5 days (fraction); higher = more cells survive
Motesanib = compound: CC1(C)CNc2cc(NC(=O)c3cccnc3NCc3ccncc3)ccc21 [Motesanib]
Method in brief: (§1)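 Five library-drug doses, separated by factors of √10, were pinned into 1536-well plates holding lung cancer cell lines after an overnight stay at 37 °C. Cells were fixed, permeabilised and Hoechst-stained in one step after 5 days without medium change, then imaged at 4×. Viability compares treated-well with vehicle-well nuclei, counted in MetaXpress, as a median across plates. Passing plates had control CV below 25% and at least one doubling.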

[1] = compound: C[C@@]1(C(=O)Nc2ccc(F)nc2)CCCN1c1nc(Nc2cc(C3CC3)n[nH]2)c2cccn2n1
Method in brief: as §1

Motesanib + Navitoclax = compound: CC1(C)CNc2cc(NC(=O)c3cccnc3NCc3ccncc3)ccc21 [Motesanib] + CC1(C)CCC(c2ccc(Cl)cc2)=C(CN2CCN(c3ccc(C(=O)NS(=O)(=O)c4ccc(N[C@H](CCN5CCOCC5)CSc5ccccc5)c(S(=O)(=O)C(F)(F)F)c4)cc3)CC2)C1 [Navitoclax] (partner 0.5 µM)
Method in brief: (§2)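 A single step with final 0.05% Triton X-100, 1% formaldehyde and 1 ug/ml Hoechst fixed the cells and stained nuclei 5 days after treatment. Lung cancer cell lines in 1536-well plates had been treated by pin tool the day after seeding with one drug alone or a fixed anchor-drug dose plus five library-drug doses (not always all listed) in √10 steps, and nuclei were counted on 4× images. Relative viability is the ratio of nuclei in treated wells to nuclei in vehicle wells, taken as the median of duplicate plates.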

[2] = compound: C[C@@]1(C(=O)Nc2ccc(F)nc2)CCCN1c1nc(Nc2cc(C3CC3)n[nH]2)c2cccn2n1 + Cc1cc(Nc2cc(N3CCN(C)CC3)nc(Sc3ccc(NC(=O)C4CC4)cc3)n2)n[nH]1 [Tozasertib] (partner 0.1 µM)
Method in brief: as §2

UMC-11
relative viability (Motesanib; 0.01 µM): 0.951
relative viability (Motesanib; 0.03162 µM): 1.07
relative viability (Motesanib; 0.1 µM): 0.872
relative viability (Motesanib; 0.3162 µM): 1
relative viability (Motesanib; 1 µM): 1.13
relative viability ([1]; 0.04 µM): 0.981
relative viability ([1]; 0.1265 µM): 1.03
relative viability ([1]; 0.4 µM): 0.907
relative viability ([1]; 1.265 µM): 0.797
relative viability (Motesanib + Navitoclax; first compound 0.01 µM): 0.341
relative viability (Motesanib + Navitoclax; first compound 0.03162 µM): 0.312
relative viability (Motesanib + Navitoclax; first compound 0.1 µM): 0.31
relative viability (Motesanib + Navitoclax; first compound 0.3162 µM): 0.302
relative viability (Motesanib + Navitoclax; first compound 1 µM): 0.318
relative viability ([2]; first compound 0.04 µM): 0.2
relative viability ([2]; first compound 0.1265 µM): 0.203
relative viability ([2]; first compound 0.4 µM): 0.204
relative viability ([2]; first compound 1.265 µM): 0.184
